# Assay results taken from US7332495B2 (priority 2002, dated 2008).
# Where two headings read alike, the source gives them in different places. Marks after values point to notes of the source that are not given here.
# Columns and labels:
# rats = assay: Spontaneous withdrawal tests (body weight); type: in vivo
# Procedure: 96 mice were divided into 4 groups (24 for each group, ? fifty-fifty), and Morphine, IV-12-1, IV-12-2, warm boiled water were administered respectively, using progressive dose increase for 7 days (i.g.) and 2 times per day. The weight of the rats after drug withdrawal was compared with the weight one day before drug withdrawal at a corresponding time (See Table 9 and 10).
# Mice [1] = assay: Mice 55° C. hot plate; type: in vivo; conditions: Mus musculus, po, read-out: Analgesia ED50
# Procedure: (§1) Two species of animals (mice and rats) and four types of pain testing models (i.p. 0.7% acetic acid, s.c. 5% formalin, hot plate 55° C., focused radiant heat) were used.
# Kunming mice = assay: Sedation: spontaneous activities recorded with alternating current tube; type: in vivo
# Procedure: Kunming mice were used, with a male-female ratio of 50-50%. […] After 30 minutes, acetic acid (0.7%, […] i.p.) was injected and the number of writhes was observed during a 5-minute period after acetic acid administration. The inhibition ratio of the writhing threshold was calculated. The alternating current tube is used to record the spontaneous activities for measuring sedation.
# Mice [2] = assay: Jumping test in mice (Narcan precipitated); type: in vivo; conditions: for Times for jump (IV ± SD): 3 times per day for 7 days, Narcan i.p. 2 mg/kg
# Procedure: Sixty-four mice were divided into 4 groups (16 for each group, ? fifty-fifty) Morphine, IV-12-1 (75 mg/Kg) IV-12-2 (100 mg/Kg) and saline were administrated respectively 3 times per day for 7 days with progressive dose increase. On the 7th day, Narcan is injected (i.p. 2 mg/kg) to precipitate withdrawal. The number of times for the mice to jump was recorded and the incidence of the jump calculated.
# rat [3] = assay: animal or person; conditions: for responders at 20 mg/kg: ip
# Procedure: Using 55° C. hot plate pain threshold detector (available from Ninghai Baishi Electronic Medical Instrument Co., Zheijiang, China) the threshold change before and after administration of a pharmaceutical composition of the present invention is tested. […] hind paw was scrubbed with alcohol cotton ball before the experiment. The regular pain threshold was tested twice for each rat, the induced hind paw licking time being recorded as the pain threshold. Measurements were made at 20-30 minute intervals. Only rats with stable pain reaction were used in the pharmaceutical test.
# as §1
# NMDA receptor = assay: Binding test with NMDA receptor; conditions: 0.1 μM, 1 μM and 10 μM
# voltage-gating channel = assay: Electrophysiology of hippocampus's pyramidal cell: voltage-gating channel; type: cell-based
# rat [4] = assay: Rat 5% formalin paw s.c.; type: in vivo; conditions: p.o., read-out: Analgesia ED50
# Procedure: as §1
# Mice [5] = assay: Spontaneous activities of mice after oral IV-12; type: in vivo; conditions: p.o. 15 or 30 mg/kg
structure (smiles),measurement,setting,value
"Nc1ccc(CN2CCN(CC(=O)c3ccccc3)CC2)cc1 [IV-12, N^1-(4-aminobenzyl)-N^4-phenacyl piperazine]",Weight after withdrawal compared with weight one day before withdrawal,"rats; IV-12-1 75 mg/kg, 138 h after withdrawal",1.08 ± 0.06
same,Increase (%) of weight,"rats; IV-12-1 (75 mg/kg), 18 h after withdrawal",3.9%
same,Increase (%) of weight,"rats; IV-12-1 (75 mg/kg), 36 h after withdrawal",5.3%
same,Weight,"rats; IV-12-1 (75 mg/kg), 60 h after withdrawal",258.5 ± 38 g
same,Weight,"rats; IV-12-1 (75 mg/kg), 72 h after withdrawal",251.6 ± 36 g
same,Weight after withdrawal compared with weight one day before withdrawal,"rats; IV-12-2 100 mg/kg, 18 h after withdrawal",1.01 ± 0.04
same,Increase (%) of weight,"rats; IV-12-2 (75 mg/kg), 60 h after withdrawal",1.9%
same,Weight,"rats; IV-12-2 (75 mg/kg), 114 h after withdrawal",260.1 ± 30 g
same,Increase (%) of weight,"rats; IV-12-2 (75 mg/kg), 132 h after withdrawal",7.0%
same,Weight after drug withdrawal (in words),rats; groups IV-12-1 and IV-12-2,did not decrease
same,ED50,Mice [1],20.6 mg/kg
same,Sedation (writhing model),"Kunming mice; 20 mg/kg, Table 5 summary",97
same,inhibition in vivo at 20 mg/kg,"Kunming mice; Mus musculus, ip, i.p. 20 mg/Kg, spontaneous activities",97%
same,Incidence for jump (%),Mice [2]; IV-12-1 (75 mg/Kg),43.8*^## %
same,Times for jump (IV ± SD),Mice [2]; IV-12-1 (75 mg/Kg),9 ± 18
same,Incidence for jump (%),Mice [2]; IV-12-2 (100 mg/Kg),62.5* %
same,Times for jump (IV ± SD),Mice [2]; IV-12-2 (100 mg/Kg),33 ± 40
same,Increase (hot plate) (%),"rat [3]; 20 mg/kg, Table 5 summary",100%
same,responders at 20 mg/kg,"rat [3]; Rattus norvegicus, read-out: Analgesic ratio (Increase by 100%)",100%
same,responders at 20 mg/kg,"rat [3]; Rattus norvegicus, read-out: Analgesic ratio (More than 60 seconds)",80%
same,ED50,"rat [3]; Rattus norvegicus, po, read-out: Analgesia ED50",52.4 mg/kg
same,Antagonism on Glu site of NMDA receptor,NMDA receptor,no antagonism
same,Antagonism on Gly site of NMDA receptor,NMDA receptor,no antagonism
same,Antagonism on ion-channel site of NMDA receptor,NMDA receptor,no antagonism
same,Effect on voltage-gating channel,voltage-gating channel,did not affect
same,ED50,rat [4],102 mg/kg
same,Behaviour / spontaneous activities,Mice [5],quiet and suppressed from spontaneous activities
